Structures are written as SMILES. Positions of bridges follow the written chain, without caps; N, C: chain ends. Non-standard residues stand in square brackets, D forms with d. Residues, ends and D or L forms follow the SMILES beside them. NMeF = CN[C@@H](Cc1ccccc1)C(=O)O; Gly(N(CH2)3NH2) = NCCCNCC(=O)O; NMeC = CN[C@@H](CS)C(=O)O; NMeA = CN[C@@H](C)C(=O)O; Dap = NC[C@H](N)C(=O)O; Sar = CNCC(=O)O

We go through ten compounds from patent EP4786487A1, “PEPTIDE” (Peptidream Inc, priority 2023, dated 2025).

For one assay, the target named is T1, Myostatin (Homo sapiens, UniProt O14793).
T1 construct: active myostatin (also called mature myostatin) is a homodimer consisting of two C-terminal growth factor domains; purchased R&D systems 788-G8/CF
T1 sequence (O14793 267-375): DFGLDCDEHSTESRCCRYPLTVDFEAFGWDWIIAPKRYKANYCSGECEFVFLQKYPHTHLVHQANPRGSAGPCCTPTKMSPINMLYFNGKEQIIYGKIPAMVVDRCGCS
Kind of assay: HepG2 reporter gene assay, Evaluation Procedure (2): 2-concentrations assay, myostatin inhibition. Format: cell-based. The note with it: Myostatin 10 ng/mL, HepG2; for inhibition at 0.03 µM: peptide 30nM, read-out: Myostatin Inhibition 30nM; for inhibition at 0.1 µM: peptide 100nM, read-out: Myostatin Inhibition 100nM. The protocol: (§1) The pGL3(CAGA)12-luc plasmid, namely a pGL3 vector (E1751, Promega) having a luciferase gene inserted downstream of a promoter sequence with 12 CAGA repeats attached, was transfected into HepG2 cell line (HB-8065, ATCC). The culture of HepG2 cell line (HB-8065, ATCC) was performed as in the Evaluation Procedure (1).
(§2) Myostatin (788-G8/CF, R&D systems) or GDF-11 (1958-GD-G8/CF, R&D systems) was added at a final concentration of 10 ng/mL. […] At this time, blank wells, in which neither myostatin, GDF-11, nor each peptide was added, were also prepared and incubated in a CO2 incubator (37°C, 5% CO2) for 20 to 24 hours.
(§3) The medium containing the cells was removed, and a mixture containing PBS (14190144, Thermo) and a chromogenic substrate One-Glo Luciferase Assay System (E6120, Promega) at a ratio of 1:1 was added to each well at 100 µL/well. This was stirred with a plate shaker for 5 min and transferred to a 384-well plate (3570, Corning) at a volume of 20 µL/well.
(§4) The plate was centrifuged at 1,000 × g for 1 min and the luminescence signal (700 nm luminescence) was measured using a plate reader (Envision 2104, PerkinElmer). Based on the measurement results, the inhibition rate at each peptide concentration was calculated. […]
Background: A reporter such as luciferase makes a cellular process visible.

Another assay concerns the target T2, GDF-11 (Homo sapiens, UniProt O95390).
T2 construct: purchased R&D systems 1958-GD-G8/CF
T2 sequence (O95390 299-407): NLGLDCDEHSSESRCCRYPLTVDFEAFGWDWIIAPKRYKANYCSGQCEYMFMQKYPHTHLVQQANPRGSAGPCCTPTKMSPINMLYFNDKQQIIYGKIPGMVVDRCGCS
The assay is described as follows: HepG2 reporter gene assay, Evaluation Procedure (2): 2-concentrations assay, GDF-11 inhibition. Format: cell-based. The note with it: GDF-11 10 ng/mL; for inhibition at 0.03 µM: HepG2, peptide 30nM, read-out: GDF11 Inhibition 30nM; for inhibition at 0.1 µM: HepG2, peptide 100nM, read-out: GDF11 Inhibition 100nM. Here is the method:
as §1, §2, §3, §4

In general, inhibition refers to the drop in the measured response relative to a control, in per cent. As to `CC[C@H](C)[C@@H]1NC(=O)[C@H](Cc2ccccc2)N(C)C(=O)[C@H](Cc2ccc(O)cc2)NC(=O)[C@H](Cc2c[nH]c3ccccc23)NC(=O)[C@H](CCCNC(=N)N)NC(=O)CN(CCCN)C(=O)CSC[C@@H](C(N)=O)NC(=O)[C@H](Cc2ccccc2)N(C)C(=O)[C@H](C)N(C)C(=O)[C@H](CC(C)C)NC(=O)[C@H](Cc2ccccc2)N(C)C(=O)[C@H](CCCNC(=N)N)NC(=O)[C@H](Cc2ccc(O)cc2)NC(=O)[C@H](Cc2ccc(O)cc2)NC(=O)CN(C)C1=O` [Myostatin_000099_01ApG] ({CH2CO}-[Gly(N(CH2)3NH2)]RWY[NMeF]I[Sar]YYR[NMeF]L[NMeA][NMeF]C-NH2; thioether N-15), at Myostatin, the inhibition at 0.03 µM worked out at 19% and the inhibition at 0.1 µM was 65%. On GDF-11, the inhibition at 0.03 µM was 0% and the inhibition at 0.1 µM turned out to be 0%.
With `CC[C@H](C)[C@@H]1NC(=O)[C@H](Cc2ccccc2)N(C)C(=O)[C@H](Cc2ccc(O)cc2)NC(=O)[C@H](Cc2c[nH]c3ccccc23)NC(=O)[C@H](CCCNC(=N)N)NC(=O)[C@H](CN)NC(=O)CSC[C@@H](C(N)=O)NC(=O)[C@H](Cc2ccccc2)N(C)C(=O)[C@H](C)N(C)C(=O)[C@H](CC(C)C)NC(=O)[C@H](Cc2ccccc2)N(C)C(=O)[C@H](CCCNC(=N)N)NC(=O)[C@H](Cc2ccc(O)cc2)NC(=O)[C@H](Cc2ccc(O)cc2)NC(=O)CN(C)C1=O` [Myostatin_000099_01Dap] ({CH2CO}-[Dap]RWY[NMeF]I[Sar]YYR[NMeF]L[NMeA][NMeF]C-NH2; thioether N-15), the inhibition at 0.03 µM at Myostatin came out at 18%; on GDF-11, 0%. The figures for the inhibition at 0.1 µM at Myostatin and at GDF-11 were 62% and 0%, respectively.
Regarding `CC[C@H](C)[C@@H]1NC(=O)[C@H](Cc2ccccc2)N(C)C(=O)[C@H](Cc2ccc(O)cc2)NC(=O)[C@H](Cc2c[nH]c3ccccc23)NC(=O)[C@H](CCCNC(=N)N)NC(=O)[C@H](C)N(C)C(=O)CSC[C@@H](C(N)=O)NC(=O)[C@H](Cc2ccccc2)N(C)C(=O)[C@H](C)N(C)C(=O)[C@H](CC(C)C)NC(=O)[C@H](Cc2ccccc2)N(C)C(=O)[C@H](CCCNC(=N)N)NC(=O)[C@H](Cc2ccc(O)cc2)NC(=O)[C@H](Cc2ccc(O)cc2)NC(=O)CN(C)C1=O` [Myostatin_000099_01meA] ({CH2CO}-[NMeA]RWY[NMeF]I[Sar]YYR[NMeF]L[NMeA][NMeF]C-NH2; thioether N-15), at Myostatin, the inhibition at 0.03 µM is 55% and the inhibition at 0.1 µM stood at 82%. For the same compound, at GDF-11, the inhibition at 0.03 µM came out at 0% and the inhibition at 0.1 µM came to 0%.
With `CC[C@H](C)[C@@H]1NC(=O)[C@H](Cc2ccccc2)N(C)C(=O)[C@H](Cc2ccc(O)cc2)NC(=O)[C@H](Cc2c[nH]c3ccccc23)NC(=O)[C@H](C)NC(=O)[C@H](C)NC(=O)CSC[C@@H](C(N)=O)NC(=O)[C@H](Cc2ccccc2)N(C)C(=O)[C@H](C)N(C)C(=O)[C@H](CC(C)C)NC(=O)[C@H](Cc2ccccc2)N(C)C(=O)[C@H](CCCNC(=N)N)NC(=O)[C@H](Cc2ccc(O)cc2)NC(=O)[C@H](Cc2ccc(O)cc2)NC(=O)CN(C)C1=O` [Myostatin_000099_02A] ({CH2CO}-AAWY[NMeF]I[Sar]YYR[NMeF]L[NMeA][NMeF]C-NH2; thioether N-15), on Myostatin, the inhibition at 0.03 µM was determined as 64% and the inhibition at 0.1 µM is 89%. In addition, at GDF-11, the inhibition at 0.03 µM was 0% and the inhibition at 0.1 µM worked out at 5%.
Take `CC[C@H](C)[C@@H]1NC(=O)[C@H](Cc2ccccc2)N(C)C(=O)[C@H](Cc2ccc(O)cc2)NC(=O)[C@H](Cc2c[nH]c3ccccc23)NC(=O)[C@H](CN)NC(=O)[C@H](C)NC(=O)CSC[C@@H](C(N)=O)NC(=O)[C@H](Cc2ccccc2)N(C)C(=O)[C@H](C)N(C)C(=O)[C@H](CC(C)C)NC(=O)[C@H](Cc2ccccc2)N(C)C(=O)[C@H](CCCNC(=N)N)NC(=O)[C@H](Cc2ccc(O)cc2)NC(=O)[C@H](Cc2ccc(O)cc2)NC(=O)CN(C)C1=O` [Myostatin_000099_02Dap] ({CH2CO}-A[Dap]WY[NMeF]I[Sar]YYR[NMeF]L[NMeA][NMeF]C-NH2; thioether N-15): at Myostatin, the inhibition at 0.03 µM was determined as 50% and the inhibition at 0.1 µM amounted to 82%. In addition, on GDF-11, the inhibition at 0.03 µM was 0% and the inhibition at 0.1 µM amounted to 2%.
Turning to `CC[C@H](C)[C@@H]1NC(=O)[C@H](Cc2ccccc2)N(C)C(=O)[C@H](Cc2ccc(O)cc2)NC(=O)[C@H](Cc2c[nH]c3ccccc23)NC(=O)[C@H](CCC(=O)O)NC(=O)[C@H](C)NC(=O)CSC[C@@H](C(N)=O)NC(=O)[C@H](Cc2ccccc2)N(C)C(=O)[C@H](C)N(C)C(=O)[C@H](CC(C)C)NC(=O)[C@H](Cc2ccccc2)N(C)C(=O)[C@H](CCCNC(=N)N)NC(=O)[C@H](Cc2ccc(O)cc2)NC(=O)[C@H](Cc2ccc(O)cc2)NC(=O)CN(C)C1=O` [Myostatin_000099_02E] ({CH2CO}-AEWY[NMeF]I[Sar]YYR[NMeF]L[NMeA][NMeF]C-NH2; thioether N-15), the inhibition at 0.03 µM on Myostatin is 58%; on GDF-11, 0%. Moreover, the inhibition at 0.1 µM on Myostatin turned out to be 83%; at GDF-11 it was 9%.
On to `CC[C@H](C)[C@@H]1NC(=O)[C@H](Cc2ccccc2)N(C)C(=O)[C@H](Cc2ccc(O)cc2)NC(=O)[C@H](Cc2c[nH]c3ccccc23)NC(=O)[C@H](CCCCN)NC(=O)[C@H](C)NC(=O)CSC[C@@H](C(N)=O)NC(=O)[C@H](Cc2ccccc2)N(C)C(=O)[C@H](C)N(C)C(=O)[C@H](CC(C)C)NC(=O)[C@H](Cc2ccccc2)N(C)C(=O)[C@H](CCCNC(=N)N)NC(=O)[C@H](Cc2ccc(O)cc2)NC(=O)[C@H](Cc2ccc(O)cc2)NC(=O)CN(C)C1=O` [Myostatin_000099_02K] ({CH2CO}-AKWY[NMeF]I[Sar]YYR[NMeF]L[NMeA][NMeF]C-NH2; thioether N-15), for which, on Myostatin, the inhibition at 0.03 µM came out at 35% and the inhibition at 0.1 µM amounted to 73%. Also, at GDF-11, the inhibition at 0.03 µM worked out at 0% and the inhibition at 0.1 µM is 0%.
For the compound `CC[C@H](C)[C@@H]1NC(=O)[C@H](Cc2ccccc2)N(C)C(=O)[C@H](Cc2ccc(O)cc2)NC(=O)[C@H](Cc2c[nH]c3ccccc23)NC(=O)[C@@H](C)NC(=O)[C@H](C)NC(=O)CSC[C@H](C(N)=O)NC(=O)[C@H](Cc2ccccc2)N(C)C(=O)[C@H](C)N(C)C(=O)[C@H](CC(C)C)NC(=O)[C@H](Cc2ccccc2)N(C)C(=O)[C@H](CCCNC(=N)N)NC(=O)[C@H](Cc2ccc(O)cc2)NC(=O)[C@H](Cc2ccc(O)cc2)NC(=O)CN(C)C1=O` [Myostatin_99_2da_15dc_NH2] ({CH2CO}-A[dA]WY[NMeF]I[Sar]YYR[NMeF]L[NMeA][NMeF][dC]-NH2; thioether N-15), at Myostatin, the inhibition at 0.03 µM was 94% and the inhibition at 0.1 µM came out at 98%. In addition, on GDF-11, the inhibition at 0.03 µM was 15% and the inhibition at 0.1 µM worked out at 48%.
`CC[C@H](C)[C@@H]1NC(=O)[C@H](Cc2ccccc2)N(C)C(=O)[C@H](Cc2ccc(O)cc2)NC(=O)[C@H](Cc2c[nH]c3ccccc23)NC(=O)[C@H](CCCNC(=N)N)NC(=O)[C@H](C)NC(=O)CSC[C@H](C(N)=O)NC(=O)[C@H](Cc2ccccc2)N(C)C(=O)[C@H](C)N(C)C(=O)[C@H](CC(C)C)NC(=O)[C@H](Cc2ccccc2)N(C)C(=O)[C@H](CCCNC(=N)N)NC(=O)[C@H](Cc2ccc(O)cc2)NC(=O)[C@H](Cc2ccc(O)cc2)NC(=O)CN(C)C1=O` [Myostatin_000099_15dc] ({CH2CO}-ARWY[NMeF]I[Sar]YYR[NMeF]L[NMeA][NMeF][dC]-NH2; thioether N-15): on Myostatin, the inhibition at 0.03 µM amounted to 69% and the inhibition at 0.1 µM amounted to 89%. Besides, at GDF-11, the inhibition at 0.03 µM was found to be 0% and the inhibition at 0.1 µM was found to be 12%.
With `CC[C@H](C)[C@@H]1NC(=O)[C@H](Cc2ccccc2)N(C)C(=O)[C@H](Cc2ccc(O)cc2)NC(=O)[C@H](Cc2c[nH]c3ccccc23)NC(=O)[C@H](CCCNC(=N)N)NC(=O)[C@H](C)NC(=O)CSC[C@@H](C(N)=O)N(C)C(=O)[C@H](Cc2ccccc2)N(C)C(=O)[C@H](C)N(C)C(=O)[C@H](CC(C)C)NC(=O)[C@H](Cc2ccccc2)N(C)C(=O)[C@H](CCCNC(=N)N)NC(=O)[C@H](Cc2ccc(O)cc2)NC(=O)[C@H](Cc2ccc(O)cc2)NC(=O)CN(C)C1=O` [Myostatin_000099_15meC] ({CH2CO}-ARWY[NMeF]I[Sar]YYR[NMeF]L[NMeA][NMeF][NMeC]-NH2; thioether N-15), the inhibition at 0.03 µM turned out to be 50% at Myostatin and 0% at GDF-11. Further, the results for the inhibition at 0.1 µM on Myostatin and on GDF-11 were 75% and 4%, respectively.
